Test results: ChEMBL document CHEMBL4613271, “Application of Atypical Acetyl-lysine Methyl Mimetics in the Development of Selective Inhibitors of the Bromodomain-Containing Protein 7 (BRD7)/Bromodomain-Containing Protein 9 (BRD9) Bromodomains” (J Med Chem, 2020)

Columns and labels:
[1] = biological target: T1, Bromodomain-containing protein 4 (Homo sapiens, UniProt O60885); assay: Binding affinity to BRD4 (1) (unknown origin) N-terminal bromodomain by TR-FRET assay
[2] = biological target: T2, Bromodomain-containing protein 9 (Homo sapiens, UniProt Q9H8M2)
T2 sequence (Q9H8M2 whole entry): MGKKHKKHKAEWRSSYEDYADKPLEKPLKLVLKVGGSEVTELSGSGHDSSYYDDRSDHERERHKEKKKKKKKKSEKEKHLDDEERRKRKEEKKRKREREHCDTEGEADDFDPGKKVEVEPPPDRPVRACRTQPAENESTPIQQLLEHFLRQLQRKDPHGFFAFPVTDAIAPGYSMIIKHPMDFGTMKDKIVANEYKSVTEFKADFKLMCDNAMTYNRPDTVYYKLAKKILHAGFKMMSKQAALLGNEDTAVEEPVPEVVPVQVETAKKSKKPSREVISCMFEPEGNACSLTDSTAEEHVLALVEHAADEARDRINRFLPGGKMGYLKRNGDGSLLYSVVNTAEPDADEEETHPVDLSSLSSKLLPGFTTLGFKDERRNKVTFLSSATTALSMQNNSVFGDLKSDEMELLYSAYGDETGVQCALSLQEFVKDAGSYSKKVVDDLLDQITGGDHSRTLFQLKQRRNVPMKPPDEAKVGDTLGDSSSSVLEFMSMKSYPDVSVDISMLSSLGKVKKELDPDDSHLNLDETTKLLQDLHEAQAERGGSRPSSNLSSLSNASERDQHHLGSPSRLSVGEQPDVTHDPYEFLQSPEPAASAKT
Description: Binding affinity to human partial length BRD9 (R130 to V259 residues) expressed in bacterial expression system by BROMOscan assay

[3] = biological target: T3, Bromodomain-containing protein 9 (Homo sapiens) (UniProt Q9H8M2); assay: Inhibition of human partial length BRD9 (R130 to V259 residues) expressed in bacterial expression system at 10 uM by BROMOscan assay relative to control
T3 sequence (whole entry): T2 sequence (Q9H8M2 whole entry)

[4] = biological target: T2, Bromodomain-containing protein 9; assay: Binding affinity to BRD9 (unknown origin) N-terminal bromodomain by TR-FRET assay
[5] = Chromatographic hydrophobicity index, logD of the compound at pH 7.4 by HPLC analysis; format: physicochemical; conditions: buffer
[6] = organism: Homo sapiens; assay: Selectivity index, ratio of IC50 for binding affinity to BRD4 (1) (unknown origin) N-terminal bromodomain to IC50 for binding affinity to BRD9 (unknown origin) N-terminal bromodomain
[7] = Solubility of compound by CLND method; format: physicochemical
[8] = Permeability by PAMPA; format: ADME; conditions: read-out: permeability
[9] = biological target: T1, Bromodomain-containing protein 4; assay: Binding affinity to human partial length BRD4 (1) (N44 to E168 residues) expressed in bacterial expression system by BROMOscan assay
[10] = biological target: T4, Peregrin (Homo sapiens, UniProt P55201); assay: Binding affinity to human partial length BRPF1 (E627 to G740 residues) expressed in bacterial expression system by BROMOscan assay
T4 sequence (P55201 whole entry): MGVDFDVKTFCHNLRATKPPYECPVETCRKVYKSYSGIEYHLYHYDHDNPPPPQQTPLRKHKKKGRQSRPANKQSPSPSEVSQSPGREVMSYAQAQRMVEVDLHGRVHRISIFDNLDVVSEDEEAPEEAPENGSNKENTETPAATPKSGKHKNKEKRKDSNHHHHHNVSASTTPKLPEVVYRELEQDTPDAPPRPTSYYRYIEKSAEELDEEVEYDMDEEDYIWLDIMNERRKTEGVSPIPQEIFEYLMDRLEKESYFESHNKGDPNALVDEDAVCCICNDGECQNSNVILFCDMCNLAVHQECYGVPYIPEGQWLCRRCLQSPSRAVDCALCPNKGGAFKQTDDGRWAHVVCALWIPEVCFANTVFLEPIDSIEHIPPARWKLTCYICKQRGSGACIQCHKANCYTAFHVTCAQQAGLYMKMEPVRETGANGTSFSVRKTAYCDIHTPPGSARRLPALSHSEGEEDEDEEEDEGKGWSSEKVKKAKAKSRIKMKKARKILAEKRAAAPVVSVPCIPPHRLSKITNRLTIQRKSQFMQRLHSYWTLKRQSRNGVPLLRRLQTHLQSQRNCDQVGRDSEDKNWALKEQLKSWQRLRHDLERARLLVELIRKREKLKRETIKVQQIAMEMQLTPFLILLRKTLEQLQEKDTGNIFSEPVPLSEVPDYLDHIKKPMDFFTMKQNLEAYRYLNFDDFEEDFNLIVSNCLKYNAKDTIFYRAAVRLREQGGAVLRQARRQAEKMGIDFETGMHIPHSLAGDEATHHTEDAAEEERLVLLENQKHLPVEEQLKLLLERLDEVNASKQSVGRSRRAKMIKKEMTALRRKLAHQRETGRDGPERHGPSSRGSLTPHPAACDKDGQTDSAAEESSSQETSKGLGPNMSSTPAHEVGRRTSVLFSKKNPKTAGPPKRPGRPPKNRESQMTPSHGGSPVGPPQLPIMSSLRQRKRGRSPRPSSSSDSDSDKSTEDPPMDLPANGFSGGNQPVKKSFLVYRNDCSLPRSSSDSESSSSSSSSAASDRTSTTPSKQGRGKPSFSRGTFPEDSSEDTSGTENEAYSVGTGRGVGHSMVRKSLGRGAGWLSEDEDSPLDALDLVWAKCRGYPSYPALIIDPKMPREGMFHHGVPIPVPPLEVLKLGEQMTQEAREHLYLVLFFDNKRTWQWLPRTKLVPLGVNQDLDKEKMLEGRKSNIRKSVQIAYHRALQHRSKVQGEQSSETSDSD

[11] = organism: Homo sapiens; assay: Selectivity index, ratio of IC50 for binding affinity to PCAF (unknown origin) N-terminal bromodomain to IC50 for binding affinity to BRD9 (unknown origin) N-terminal bromodomain
[12] = biological target: T5, Bromodomain-containing protein 7 (Homo sapiens, UniProt Q9NPI1); assay: Binding affinity to BRD7 (unknown origin)
T5 sequence (Q9NPI1 whole entry): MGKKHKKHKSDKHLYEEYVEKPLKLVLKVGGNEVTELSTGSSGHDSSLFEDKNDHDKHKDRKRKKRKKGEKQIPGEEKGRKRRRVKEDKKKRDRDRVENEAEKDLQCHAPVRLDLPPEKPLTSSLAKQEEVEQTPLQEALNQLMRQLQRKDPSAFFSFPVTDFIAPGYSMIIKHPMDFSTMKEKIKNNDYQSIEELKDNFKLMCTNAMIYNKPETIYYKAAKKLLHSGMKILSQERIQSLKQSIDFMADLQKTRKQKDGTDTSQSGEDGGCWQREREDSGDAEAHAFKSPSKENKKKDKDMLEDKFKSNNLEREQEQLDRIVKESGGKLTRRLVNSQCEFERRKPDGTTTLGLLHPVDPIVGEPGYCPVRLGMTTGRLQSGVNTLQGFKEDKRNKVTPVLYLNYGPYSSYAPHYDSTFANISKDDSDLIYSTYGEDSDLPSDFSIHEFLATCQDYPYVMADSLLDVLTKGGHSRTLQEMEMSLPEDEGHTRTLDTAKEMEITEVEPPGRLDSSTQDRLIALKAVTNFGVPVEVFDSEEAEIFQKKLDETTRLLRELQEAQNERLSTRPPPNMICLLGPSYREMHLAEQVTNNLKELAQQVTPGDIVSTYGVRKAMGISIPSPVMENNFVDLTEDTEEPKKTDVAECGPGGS

IC50 [1] | Ki [2] | IC50 [4] | chromatographic logD [5] | fold selectivity [6] | Ki [10] | Ki [9] | SMILES | further results
> 50.1 µM | 79.4 nM | – | – | – | – | – | CCCCc1c(Nc2cccc3c2CCN(C)C3)cnn(C)c1=O | –
25.1 µM | – | 398 nM | 3.6 | 63 | – | – | Cc1ccccc1CNc1cnn(C)c(=O)c1C | –
– | 79.4 nM | – | 2.3 | – | 6.31 µM | 7.94 µM | CCc1c(NCc2ccccc2N2CCN(C)CC2)cnn(C)c1=O | –
12.6 µM | – | 100 nM | 3.5 | 125 | – | – | Cc1c(NCc2ccccc2N2CCCOCC2)cnn(C)c1=O | –
20 µM | – | 100 nM | 3.2 | 200 | – | – | Cc1c(NCc2ccccc2N2CCOCC2)cnn(C)c1=O | –
15.8 µM | – | 63.1 nM | 1.2 | 250 | – | – | Cc1c(NCc2ccccc2N2CCN(CCCN)CC2)cnn(C)c1=O | –
20 µM | – | 2510 nM | 4 | 8 | – | – | Cc1cccc(CNc2cnn(C)c(=O)c2Cl)c1 | –
– | 10 nM | – | – | – | – | – | CCCCn1cc(-c2cccc(C(F)(F)F)c2)c2sc(C(=N)NC3CCS(=O)(=O)CC3)cc2c1=O | –
– | 100 nM | – | 2.5 | – | > 10 µM | > 10 µM | C=CCc1c(NCc2ccccc2N2CCN(C)CC2)cnn(C)c1=O | –
– | 316 nM | – | 3.1 | – | > 10 µM | > 10 µM | C=C[C@H](C)c1c(NCc2ccccc2N2CCN(C)CC2)cnn(C)c1=O | –
– | 251 nM | – | 3.1 | – | > 10 µM | > 10 µM | C=C[C@@H](C)c1c(NCc2ccccc2N2CCN(C)CC2)cnn(C)c1=O | –
– | 316 nM | – | 3.1 | – | 7.94 µM | > 10 µM | CC(C)c1c(NCc2ccccc2N2CCN(C)CC2)cnn(C)c1=O | –

Further lines, the compound ahead of its results:

SMILES | IC50 [1] | Ki [2] | IC50 [4] | chromatographic logD [5] | fold selectivity [6] | Ki [10] | Ki [9] | further results
CCOC(=O)Nc1cc(-c2ccc(C)c(NS(C)(=O)=O)c2)nn2c(C)nnc12 | – | – | – | – | – | – | – | inhibition [3]: 100%
Cc1c(NCc2ccccc2)cnn(C)c1=O | 25.1 µM | – | 1260 nM | 2.9 | 20 | – | – | –
CN1CCN(c2ccccc2CNc2cnn(C)c(=O)c2)CC1 | – | – | – | 1.1 | – | – | – | solubility kinetic [7]: ≥ 150 µg/mL; Papp [8]: 14 ×10⁻⁶ cm/s; IC50 [9]: > 50.1 µM; IC50 [2]: > 50.1 µM
Cc1ccc(CNc2cnn(C)c(=O)c2Cl)cc1 | 12.6 µM | – | 794 nM | 4 | 16 | – | – | –
CCCc1c(NCc2ccccc2N2CCN(C)CC2)cnn(C)c1=O | – | 126 nM | – | 2.8 | – | > 10 µM | > 10 µM | –
CC/C=C/c1c(NCc2ccccc2N2CCN(C)CC2)cnn(C)c1=O | – | > 10000 nM | – | 3.5 | – | > 10 µM | > 10 µM | –
CCCCc1nnc2c(NC(=O)OCC)cc(-c3ccc(C)c(NS(C)(=O)=O)c3)nn12 | – | – | – | – | – | – | – | inhibition [3]: > 95%
CCCCCc1c(NCc2ccccc2N2CCN(C)CC2)cnn(C)c1=O | – | 158 nM | – | 4.2 | – | > 10 µM | 1.58 µM | –
Cc1c(NCc2ccccc2-c2ccccc2)cnn(C)c1=O | 12.6 µM | – | 100 nM | 4.8 | 125 | – | – | –
C=CCCc1c(NCc2ccccc2N2CCN(C)CC2)cnn(C)c1=O | – | 398 nM | – | 3.2 | – | > 10 µM | > 10 µM | –
C/C=C/Cc1c(NCc2ccccc2N2CCN(C)CC2)cnn(C)c1=O | – | 39.8 nM | – | 3.1 | – | > 10 µM | 3.98 µM | –
C/C=C\Cc1c(NCc2ccccc2N2CCN(C)CC2)cnn(C)c1=O | – | 251 nM | – | 3 | – | > 10 µM | > 10 µM | –
Cc1c(Nc2cccc3c2CCN(C)C3)cnn(C)c1=O | 39.8 µM | 158 nM | – | – | – | – | – | –
Cn1ncc(NCc2ccccc2)c(Cl)c1=O | 20 µM | – | 2000 nM | 3.2 | 10 | – | – | fold selectivity [11]: 6
CNc1cnn(C)c(=O)c1Cl | 126 µM | – | 25100 nM | – | – | – | – | –
Cc1c(NCc2ccccc2N2CCNCC2)cnn(C)c1=O | > 50.1 µM | – | 200 nM | 0.7 | > 250 | – | – | –
COc1cc(-c2cn(C)c(=O)c3cnccc23)c(OC)cc1CN(C)CC(=O)NCCOCCOCCNc1cccc2c1C(=O)N(C1CCC(=O)NC1=O)C2=O (stereo not given) | – | – | – | – | – | – | – | IC50 [12]: 100 nM
